# Legend:
# CYP3A4 = molecular target: T1, CYP3A4 (Homo sapiens, UniProt P08684); assay: CYP3A4 TDI in human liver microsomes (testosterone 6β-hydroxylation); type: in vitro ADME; conditions: 30 μM test compound, 60 min vs 0 min preincubation, solvent DMSO/acetonitrile (1:4, v/v)
# T1 construct: Human liver microsomes purchased from XenoTech, LLC (Lenexa, KS) was used; tissue XenoTech, LLC (Lenexa, KS); host or cells: human liver microsomes
# Method: Human liver microsomes purchased from XenoTech, LLC (Lenexa, KS) was used. Test compounds were dissolved in acetonitrile or DMSO/acetonitrile (1:4, v/v). To a human liver microsomes solution adjusted with phosphate buffer (pH 7.4), the test compound solution was added to obtain a human liver microsomes reaction solution having the test compound concentration of 30 μM. To the human liver microsome reaction solution, NADPH production system was added, and the mixture was preincubated at 37° C. for 0 minutes or 60 minutes. After the preincubation, probe substrate testosterone was added, and testosterone metabolite 6β-hydroxytestosterone was analyzed by LC/MS/MS to evaluate CYP3A4 enzymatic activity.
# The enzyme activity (% of control) at each preincubation point was calculated from the following equation: % of control={(activity of test compound addition group)/(activity of test compound non-addition group)}×100.
# The remaining activity (% remaining) after 60 minutes of preincubation was calculated from the following equation: Remaining activity (%)={activity after 60 minutes (% of control60 min)}/{activity after 0 minutes (% of control0 min)}×100.
# human CaSR = molecular target: T2, human CaSR (Homo sapiens, UniProt P41180); assay: Human CaSR antagonist activity (NFAT-Luciferase reporter in CHO cells); type: cell-based; conditions: CHO, CaCl2 final 1.3 mM, 100% = reference antagonist at 10 μM, read-out: Inhibition rate (%) at 3.3 μM
# T2 construct: expressed in transfected cells; host or cells: CHO cells
# T2 sequence (P41180 20-1078): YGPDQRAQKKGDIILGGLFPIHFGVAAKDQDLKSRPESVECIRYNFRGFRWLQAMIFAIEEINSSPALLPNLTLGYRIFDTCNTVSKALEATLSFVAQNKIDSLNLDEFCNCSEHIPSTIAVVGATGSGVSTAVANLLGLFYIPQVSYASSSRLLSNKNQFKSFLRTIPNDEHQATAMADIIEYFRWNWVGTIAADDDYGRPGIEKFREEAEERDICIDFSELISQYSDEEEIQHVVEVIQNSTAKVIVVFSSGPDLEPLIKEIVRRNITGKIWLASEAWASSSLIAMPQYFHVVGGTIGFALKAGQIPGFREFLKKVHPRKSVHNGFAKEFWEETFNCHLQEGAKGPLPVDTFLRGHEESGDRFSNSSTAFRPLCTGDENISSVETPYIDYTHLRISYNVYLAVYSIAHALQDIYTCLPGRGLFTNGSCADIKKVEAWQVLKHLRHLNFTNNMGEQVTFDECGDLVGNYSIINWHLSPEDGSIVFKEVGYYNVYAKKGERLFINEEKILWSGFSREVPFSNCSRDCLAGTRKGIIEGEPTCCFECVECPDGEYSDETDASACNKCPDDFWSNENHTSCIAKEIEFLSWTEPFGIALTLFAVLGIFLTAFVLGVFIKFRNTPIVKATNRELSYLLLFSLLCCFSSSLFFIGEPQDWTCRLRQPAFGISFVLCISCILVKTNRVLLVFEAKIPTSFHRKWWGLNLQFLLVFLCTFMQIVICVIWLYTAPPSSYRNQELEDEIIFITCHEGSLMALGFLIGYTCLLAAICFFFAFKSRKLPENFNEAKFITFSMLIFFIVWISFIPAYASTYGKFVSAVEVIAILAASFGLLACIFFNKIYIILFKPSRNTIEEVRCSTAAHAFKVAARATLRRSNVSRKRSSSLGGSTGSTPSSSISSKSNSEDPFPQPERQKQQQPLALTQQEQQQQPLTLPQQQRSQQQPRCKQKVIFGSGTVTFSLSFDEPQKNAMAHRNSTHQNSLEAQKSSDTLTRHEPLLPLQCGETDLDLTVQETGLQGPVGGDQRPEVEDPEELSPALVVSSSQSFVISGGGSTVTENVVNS
# Method: CaSR antagonist activity measurement was performed using Bright-Glo Luciferase assay system (Promega Corporation). CHO cells in which human CaSR and NFAT-Luciferase reporter gene were forcibly expressed were suspended in MEM alpha (Wako Pure Chemical Industries, Ltd.) containing 10% dialyzed serum (HyClone). The cells in suspension was seeded in 384-well white plate (Corning) at 10,000/20 μL/well, and cultured in an incubator of 37° C., 5% CO2 for one day. A diluent of Test compound was prepared with assay buffer (MEM alpha containing 10 mM HEPES (Life Technologies) and 10% dialysis serum). The diluent was added to the plate at 5 μL/well and allowed to stand at 37° C. for 10 minutes. Further, a diluent of 7.8 mM CaCl2 prepared with assay buffer (final concentration 1.3 mM) was added at 5 μl/well and allowed to stand in an incubator of 37° C., 5% CO2 for 2 hours. Bright-Glo reagents (Promega Corporation) were added at 10 μL/well, and the obtained mixture was stirred for 5 minutes, and then luminescence intensity was measured using Multi-label reader Envision (PerkinElmer, Inc.). The activity (%) of the test compound was calculated with the definitions in which the luminescence intensity when DMSO is added in place of the test compound is defined as 0% inhibition; and the luminescence intensity when (5R)—N-(1-ethyl-1-(4-ethylphenyl)propyl)-2,7,7-trimethyl-5-phenyl-4,5,6,7-tetrahydropyrazolo[1,5-a] Pyrimidine-3-carboxamide at final concentration of 10 μM is added is defined as 100% inhibition.
# CYP3A = assay: CYP induction (CYP3A activity in cryopreserved hepatocytes, P450-Glo CYP3A4 assay); type: in vitro ADME; conditions: % of positive control; inducibility by 10 μmol/L rifampicin defined as 100%; hepatocytes treated 3 days
# Method: Cryopreserved hepatocytes were thawed in a culture medium (In VitroGRO™ CP Medium, Celsis In Vitro Technologies, U.S.A.), and the resultant was added to BioCoat™ Matrigel®™ Matrix Thin-Layer 96 well (Becton, Dickinson and Company, U.S.A.) at a concentration of 40,000 cells/well. After culturing for 24 hours, the culture medium was removed, and replaced with an incubation medium (In VitroGRO™, HI Medium with Torpedo Antibiotic Mix, Celsis In Vitro Technologies, U.S.A.). Cells were cultured for an additional 3 days. The medium was removed on day 4, and the remained cells were treated in the induction medium containing a test compound for 3 days in the presence or absence of 10 μmol/L rifampicin. The induction medium was replaced every day. The test compound addition wells in the presence of 10 μmol/L rifampicin were used to evaluate the inhibitory effect of the test compound on the inducibility of the CYP3A activity by rifampicin. The CYP3A activity was evaluated by measuring luciferin generating amount after the addition of 2 μmol/L luciferin-IPA using IPA P450-Glo™ CYP3A4 assay systems (Promega Corporation, U.S.A.). All cultures were carried out under a humidified environment at 37° C., 5% CO2. The inducibility by rifampicin was defines as 100%, and the inducibility of the test compound (% of positive control) was calculated from the following equation: [(luciferin fluorescence intensity in the absence of rifampicin and the presence of test compound)−(luciferin fluorescence intensity in the absence of rifampicin and test compound)/(luciferin fluorescence intensity in the presence of rifampicin and the absence of test compound)−(Luciferin fluorescence intensity in the absence of rifampicin and test compound)]×100.
# T1 sequence (P08684 whole entry): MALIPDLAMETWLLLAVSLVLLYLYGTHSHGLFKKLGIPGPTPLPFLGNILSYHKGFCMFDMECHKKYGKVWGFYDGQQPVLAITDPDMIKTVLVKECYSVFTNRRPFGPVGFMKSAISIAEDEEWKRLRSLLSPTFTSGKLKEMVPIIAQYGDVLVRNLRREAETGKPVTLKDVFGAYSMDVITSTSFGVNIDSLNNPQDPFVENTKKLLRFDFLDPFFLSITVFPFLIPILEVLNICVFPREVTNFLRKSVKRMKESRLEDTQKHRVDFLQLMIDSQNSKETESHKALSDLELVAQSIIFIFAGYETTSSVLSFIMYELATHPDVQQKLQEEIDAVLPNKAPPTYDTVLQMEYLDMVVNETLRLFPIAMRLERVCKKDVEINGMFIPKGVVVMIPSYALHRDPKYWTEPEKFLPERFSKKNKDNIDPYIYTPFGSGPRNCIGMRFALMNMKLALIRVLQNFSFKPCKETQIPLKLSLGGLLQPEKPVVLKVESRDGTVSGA
smiles,measurement,setting,value
"CCc1ccc([C@@](CC)(NC(=O)c2c(C)nn3c2N[C@@H](c2ccccc2)CC3(C)C)C(=O)N[C@@H](C)C(N)=O)cc1 [Example 1, (5R)-N-((2R)-1-(((2S)-1-Amino-1-oxopropan-2-yl)amino)-2-(4-ethylphenyl)-1-oxobutan-2-yl)-2,7,7-trimethyl-5-phenyl-4,5,6,7-tetrahydropyrazolo[1,5-a]pyrimidine-3-carboxamide]",Remaining Activity,CYP3A4,96.2%
same,inhibition at 3.3 µM,human CaSR,103%
same,Inducibility,CYP3A,15.3%

# Reference: US12202832B2, “Heterocyclic compounds having a calcium-sensing receptor antagonistic activity” (TAKEDA PHARMACEUTICAL COMPANY LIMITED, priority 2017, dated 2025)
